Laboratory results from the NIST ThermoML archive (doi:10.1021/acs.jced.7b00106).

Conditions: Hot wire method

FC(F)(F)/C=C/Cl [(E)-1-chloro-3,3,3-trifluoroprop-1-ene]
Conditions	thermal conductivity [W/m/K]
303.31 K, 62940 kPa, Liquid	0.1059
303.32 K, 65424 kPa, Liquid	0.1066
303.34 K, 383 kPa, Liquid	0.08114
303.35 K, 4071 kPa, Liquid	0.08347
303.36 K, 56409 kPa, Liquid	0.1043
303.38 K, 8070 kPa, Liquid	0.08486
303.38 K, 16014 kPa, Liquid	0.08858
303.39 K, 11885 kPa, Liquid	0.08675
303.4 K, 295 kPa, Liquid	0.08173
303.4 K, 48041 kPa, Liquid	0.1012
303.42 K, 48413 kPa, Liquid	0.1013
303.44 K, 7814 kPa, Liquid	0.0847
303.47 K, 7846 kPa, Liquid	0.0848
303.5 K, 136 kPa, Gas	0.01133
303.5 K, 62957 kPa, Liquid	0.1058
303.5 K, 65425 kPa, Liquid	0.1067
303.51 K, 132 kPa, Gas	0.01137
303.51 K, 41983 kPa, Liquid	0.09892
303.51 K, 47179 kPa, Liquid	0.1008
303.53 K, 122 kPa, Gas	0.01133
303.54 K, 4064 kPa, Liquid	0.08281
303.54 K, 56404 kPa, Liquid	0.1037
303.56 K, 36213 kPa, Liquid	0.09672
303.59 K, 293 kPa, Liquid	0.08112
303.6 K, 48039 kPa, Liquid	0.101
303.61 K, 48415 kPa, Liquid	0.101
303.71 K, 41980 kPa, Liquid	0.09862
303.71 K, 47178 kPa, Liquid	0.1004
303.76 K, 36210 kPa, Liquid	0.09644
303.97 K, 136 kPa, Gas	0.01134
304 K, 121 kPa, Gas	0.01134
304.01 K, 131 kPa, Gas	0.01133
304.5 K, 135 kPa, Gas	0.01137
304.51 K, 122 kPa, Gas	0.01139
304.53 K, 130 kPa, Gas	0.01127
305.03 K, 135 kPa, Gas	0.0114
305.05 K, 121 kPa, Gas	0.0114
305.16 K, 131 kPa, Gas	0.01092
305.6 K, 134 kPa, Gas	0.01142
305.62 K, 122 kPa, Gas	0.01143
305.74 K, 132 kPa, Gas	0.01105
311.53 K, 157 kPa, Gas	0.01177
311.84 K, 158 kPa, Gas	0.01185
311.93 K, 134 kPa, Gas	0.01187
312.17 K, 165 kPa, Gas	0.01181
312.19 K, 159 kPa, Gas	0.01198
312.22 K, 98 kPa, Gas	0.012
312.23 K, 134 kPa, Gas	0.01169
312.26 K, 135 kPa, Gas	0.01202
312.37 K, 191 kPa, Gas	0.012
312.46 K, 165 kPa, Gas	0.01175
312.5 K, 133 kPa, Gas	0.0117
312.53 K, 160 kPa, Gas	0.01191
312.56 K, 98 kPa, Gas	0.01197
312.64 K, 135 kPa, Gas	0.01197
312.67 K, 191 kPa, Gas	0.01194
312.76 K, 166 kPa, Gas	0.01173
312.79 K, 131 kPa, Gas	0.01152
312.81 K, 96 kPa, Gas	0.01168
312.82 K, 133 kPa, Gas	0.01159
312.93 K, 97 kPa, Gas	0.01203
312.94 K, 162 kPa, Gas	0.01192
312.97 K, 190 kPa, Gas	0.01196
313.06 K, 134 kPa, Gas	0.01201
313.06 K, 195 kPa, Gas	0.01197
313.07 K, 167 kPa, Gas	0.01173
313.11 K, 96 kPa, Gas	0.0116
313.11 K, 130 kPa, Gas	0.0115
313.15 K, 132 kPa, Gas	0.01155
313.31 K, 97 kPa, Gas	0.01207
313.35 K, 195 kPa, Gas	0.01196
313.36 K, 163 kPa, Gas	0.01197
313.42 K, 96 kPa, Gas	0.01157
